Source: the CheMixHub viscosity set
± gives the uncertainty stated by the source.

Assay: xn = mol fraction of the nth substance listed

CC(C)CC(C)O (stereo not drawn) + CCO
298.15 K, 101.33 kPa
Details | viscosity [mPa·s]
x2 = 0.1103 | 3.682 ± 0.029
x2 = 0.2012 | 3.495 ± 0.028
x2 = 0.3207 | 3.131 ± 0.025
x2 = 0.4152 | 2.817 ± 0.022
x2 = 0.5152 | 2.487 ± 0.02
x2 = 0.6098 | 2.16 ± 0.017
x2 = 0.7078 | 1.883 ± 0.015
x2 = 0.8008 | 1.6 ± 0.013
x2 = 0.8981 | 1.342 ± 0.011

CCCCC + CCO
298.15 K, 101.33 kPa
Details | viscosity [mPa·s]
x2 = 0.0673 | 0.245 ± 0.003
x2 = 0.1351 | 0.255 ± 0.004
x2 = 0.2366 | 0.288 ± 0.004
x2 = 0.3031 | 0.302 ± 0.004
x2 = 0.4034 | 0.347 ± 0.005
x2 = 0.5262 | 0.425 ± 0.006
x2 = 0.6339 | 0.521 ± 0.007
x2 = 0.7315 | 0.634 ± 0.008
x2 = 0.8097 | 0.742 ± 0.009
x2 = 0.9174 | 0.927 ± 0.012

CCCCCCCO + CCO
viscosity [mPa·s], 101 kPa
Details | 298.15 K | 308.15 K | 318.15 K
x2 = 0.05 | 5.456 ± 0.053 | 4.038 ± 0.038 | 3.025 ± 0.028
x2 = 0.1 | 5.144 ± 0.049 | 3.82 ± 0.035 | 2.89 ± 0.026
x2 = 0.15 | 4.838 ± 0.046 | 3.607 ± 0.033 | 2.75 ± 0.025
x2 = 0.2 | 4.539 ± 0.043 | 3.4 ± 0.031 | 2.607 ± 0.024
x2 = 0.25 | 4.249 ± 0.04 | 3.199 ± 0.029 | 2.465 ± 0.022
x2 = 0.3 | 3.969 ± 0.037 | 3.005 ± 0.027 | 2.325 ± 0.021
x2 = 0.35 | 3.699 ± 0.034 | 2.817 ± 0.025 | 2.188 ± 0.019
x2 = 0.4 | 3.439 ± 0.031 | 2.636 ± 0.024 | 2.055 ± 0.018
x2 = 0.45 | 3.191 ± 0.029 | 2.462 ± 0.022 | 1.927 ± 0.017
x2 = 0.5 | 2.954 ± 0.027 | 2.294 ± 0.021 | 1.805 ± 0.016
x2 = 0.55 | 2.727 ± 0.024 | 2.132 ± 0.019 | 1.688 ± 0.015
x2 = 0.6 | 2.512 ± 0.022 | 1.977 ± 0.017 | 1.577 ± 0.014
x2 = 0.65 | 2.306 ± 0.02 | 1.827 ± 0.016 | 1.471 ± 0.013
x2 = 0.7 | 2.111 ± 0.019 | 1.682 ± 0.015 | 1.369 ± 0.012
x2 = 0.75 | 1.924 ± 0.017 | 1.543 ± 0.013 | 1.271 ± 0.011
x2 = 0.8 | 1.744 ± 0.015 | 1.408 ± 0.012 | 1.174 ± 0.01
x2 = 0.85 | 1.571 ± 0.014 | 1.276 ± 0.011 | 1.078 ± 0.0094
x2 = 0.9 | 1.403 ± 0.012 | 1.147 ± 0.0099 | 0.9796 ± 0.0086
x2 = 0.95 | 1.237 ± 0.011 | 1.021 ± 0.0089 | 0.8769 ± 0.0078

CCN(CC)S(C)(=O)=O + CCO
303.15 K, 101.33 kPa
Details | viscosity [mPa·s]
x1 = 0.0656 | 100000 ± 16000
x1 = 0.1402 | 106700 ± 17000
x1 = 0.2228 | 117500 ± 19000
x1 = 0.2849 | 127400 ± 21000
x1 = 0.3659 | 142400 ± 24000
x1 = 0.4606 | 163500 ± 29000
x1 = 0.5135 | 176500 ± 32000
x1 = 0.5968 | 200200 ± 38000
x1 = 0.6622 | 221700 ± 43000
x1 = 0.743 | 253300 ± 51000
x1 = 0.8454 | 302600 ± 65000
x1 = 0.9395 | 359700 ± 81000
